Data: PubChem BioAssay AID1963429 (Molecular Pharmacology Branch, DTP, NCI, 2024)
Values joined by “and” are separate entries in the source; they are usually repeats but may differ in a detail not shown here. Identical values can stand only once. Each block holds one compound with its values, some of them ahead of it.

Test system: 126254-015-R-J1-PDC complex spheroid growth, % test/control
Assay: Anticancer human tumor 126254-015-R-J1-PDC patient-derived soft tissue sarcoma cell line growth inhibition [Asc]
Conditions: for viability, T/C: stronger effect = lower value
Protocol: Multicellular complex tumor spheroid response to apoptosis pathway targeting inhibitors Alrizomadlin, Pelcitoclax, and Dasminapant in combination with a variety of drugs and investigational agents in selected tumor cell lines
The MDM2 inhibitor alrizomadlin, the Bcl-2/Bcl-xL inhibitor pelcitoclax, and the IAPs inhibitor dasminapant were evaluated both individually and in combination with standard of care and investigational anticancer small molecules within a complex spheroid model of solid tumors. . Complex spheroids include a stromal component modeled by human endothelial cells (HUVEC) and fibroblasts modeled by human mesenchymal stem cells (MSCs). The concentration ranges selected for each drug and investigational agent were based upon clinically achievable concentrations if the clinical Cmax of the agent was known.
Compounds. The drugs and investigational agents: alrizomadlin (APG-115; NSC831270), pelcitoclax (APG-1252; NSC835773), dasminapant (APG-1387;NSC834197), TAK-243 (NSC785004), copanlisib (NSC809693), olaparib (NSC753686), talazoparib (NSC767125), cobimetinib (NSC 768068), eltanexor (KPT-8602, NSC 794443), abemaciclib (NSC 768073), sotorasib (NSC818433), adagrasib (NSC 831453), MRTX-1133 (NSC 836407), Iadademestat (ORY1001, NSC 806812), and RMC-4630 (NSC839698), were obtained from the NCI Developmental Therapeutics Program Chemical Repository. The FDA-approved anticancer drug set is available from the Developmental Therapeutics Program at https://dtp.cancer.gov/organization/dscb/obtaining/available plates.htm. […] The stock solutions were prepared in dimethyl sulfoxide (DMSO, Sigma-Aldrich, St. Louis, MO, cat. D2650) at 800-fold the tested concentration and stored at -70 degrees C prior to their use. All drugs and investigational agents were tested over a range starting from a high concentration at or near the clinical Cmax and decreasing in half-log increments. If the clinical Cmax for an agent had not been determined, the highest concentration tested was 10 microM.
The patient-derived cancer (PDC) cell lines include five colon adenocarcinomas: 186277-243-T-J2-PDC, 616215-338-R-J1-PDC, 439559-082-T-J2-PDC, 463943-066-T-J2-PDC, and 519858-162-T-J1-PDC; three pancreatic carcinomas: 323965-272-R-J2-PDC, 521955-158-R6-J3-PDC, and 521955-158-R2-J5-PDC; two uterine sarcomas: 327498-152-R-J2-PDC and 993429-296-R-J1-PDC; two rhabdomyosarcomas: 755483-174-R-J1-PDC and 772245-204-R-J1-PDC; two soft tissue sarcomas: 126254-015-R-J1-PDC and 494315-158-R-J1-PDC; two malignant fibrous histiocytomas: 317291-083-R-J1-PDC and 596521-263-R-J1-PDC; two breast carcinomas: 171881-019-R-J1-PDC and 885512-296-R-J2-PDC; and one ovarian carcinoma: 6556581-035-R-J-PDC were obtained from the NCI PDMR, (https://pdmr.cancer.gov). The established cell lines HSSY-2 synovial sarcoma (RRID:CVCL 8719), SYO-1 synovial sarcoma (RRID:CVCL_7146), MPNST malignant peripheral neural sheath tumor were obtained from the Sloan Kettering Institute. The following established cell lines were purchased from the American Type Culture Collection (ATCC, Manassas, VA), Sor the received from the NCI repository:, PANC-1 pancreatic carcinoma (CRL-1469, RRID:CVCL_0480), OVCAR-5 ovarian carcinoma (RRID:CVCL_1628), OVCAR-8 ovarian carcinoma (RRID:CVCL_1629), , MCF-7 breast carcinoma (CRL-12584, RRID:CVCL_0031), MDA-MB-231 breast carcinoma (CRL-12532, RRID:CVCL_0062), NCI-H1876 small cell lung carcinoma (CRL-5902, RRID:CVCL_1503), NCI-H510A small cell lung carcinoma (HTB-184, RRID:CVCL_1565), NCI-H1417 (CRL-5869, RRID:CVCL_1469), and NCI-H196 small cell lung carcinoma (CRL-5823, RRID:CVCL_1509). Dr. Peter Houghton (Greehey Children's Cancer Research Institute, University of Texas Health Science Center, San Antonio, TX) provided Rh-18 rhabdomyosarcoma (RRID:CVCL_1659). Pooled donor human umbilical vein endothelial cells (HUVEC, Lonza, cat. CC-2519) and human mesenchymal stem cells (hMSC, Lonza, cat. PT-2501) were purchased from Lonza (Walkersville, MD).
Cell Culture. […]
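Also: spheroids exposed to compound for seven days.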
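For viability, T/C in this document: 100% = DMSO vehicle control wells.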

SMILES: NC(=O)C(=Cn1cnc(-c2cc(C(F)(F)F)cc(C(F)(F)F)c2)n1)c1cncnc1 + CCN1C(C(=O)NC23CCC(C(=O)O)(CC2)CC3)C(c2cccc(Cl)c2F)C2(C(=O)Nc3cc(Cl)ccc32)C12CCCCC2
- IC50 (curve of first compound, second compound 0.03 µM): 66.2 nM
- IC50 (curve of first compound, second compound 0.0949 µM): 49.3 nM
- IC50 (curve of first compound, second compound 0.3 µM): 43.9 nM
- IC50 (curve of first compound, second compound 0.949 µM): 49.5 nM
- IC50 (curve of first compound, second compound 3 µM): 67 nM
- viability, T/C (second compound 0.03 µM, first compound 0.000949 µM): 93.9%
- viability, T/C (second compound 0.03 µM, first compound 0.003 µM): 87.4%
- viability, T/C (second compound 0.03 µM, first compound 0.00949 µM): 79.4%
- viability, T/C (second compound 0.03 µM, first compound 0.03 µM): 77.8%
- viability, T/C (second compound 0.03 µM, first compound 0.0949 µM): 37.5%
- viability, T/C (second compound 0.03 µM, first compound 0.3 µM): 19.6%
- viability, T/C (second compound 0.0949 µM, first compound 0.000949 µM): 102%
- viability, T/C (second compound 0.0949 µM, first compound 0.003 µM): 90.5%
- viability, T/C (second compound 0.0949 µM, first compound 0.00949 µM): 78.6%
- viability, T/C (second compound 0.0949 µM, first compound 0.03 µM): 61.3%
- viability, T/C (second compound 0.0949 µM, first compound 0.0949 µM): 35.8%
- viability, T/C (second compound 0.0949 µM, first compound 0.3 µM): 14%
- viability, T/C (second compound 0.3 µM, first compound 0.000949 µM): 90.1%
- viability, T/C (second compound 0.3 µM, first compound 0.003 µM): 102%
- viability, T/C (second compound 0.3 µM, first compound 0.00949 µM): 83%
- viability, T/C (second compound 0.3 µM, first compound 0.03 µM): 53.1%
- viability, T/C (second compound 0.3 µM, first compound 0.0949 µM): 39.3%
- viability, T/C (second compound 0.3 µM, first compound 0.3 µM): 17.5%
- viability, T/C (second compound 0.949 µM, first compound 0.000949 µM): 96.5%
- viability, T/C (second compound 0.949 µM, first compound 0.003 µM): 87.4%
- viability, T/C (second compound 0.949 µM, first compound 0.00949 µM): 96.1%
- viability, T/C (second compound 0.949 µM, first compound 0.03 µM): 64.2%
- viability, T/C (second compound 0.949 µM, first compound 0.0949 µM): 31.6%
- viability, T/C (second compound 0.949 µM, first compound 0.3 µM): 21%
- viability, T/C (second compound 3 µM, first compound 0.000949 µM): 102%
- viability, T/C (second compound 3 µM, first compound 0.003 µM): 99.3%
- viability, T/C (second compound 3 µM, first compound 0.00949 µM): 87.7%
- viability, T/C (second compound 3 µM, first compound 0.03 µM): 70.2%
- viability, T/C (second compound 3 µM, first compound 0.0949 µM): 41.1%
- viability, T/C (second compound 3 µM, first compound 0.3 µM): 19.6%

SMILES: NC1CCC(NC2CC2c2ccccc2)CC1 (stereo unspecified)
- viability, T/C (compound 0.000316 µM): 96.7% and 95.9% and 95.3%
- viability, T/C (compound 0.001 µM): 87.1% and 102% and 107%
- viability, T/C (compound 0.00316 µM): 96.5% and 88.6% and 98%
- viability, T/C (compound 0.01 µM): 92.1% and 90.5% and 103%
- viability, T/C (compound 0.0316 µM): 90.3% and 85.1% and 100%
- viability, T/C (compound 0.1 µM): 84.9% and 93% and 96.2%
- IC50 (curve of compound): > 100 nM

Second part, led by results:

- IC50 (curve of compound): > 10000 nM
SMILES: C=CC(=O)N1CCN(c2nc(=O)n(-c3c(C)ccnc3C(C)C)c3nc(-c4c(O)cccc4F)c(F)cc23)C(C)C1 (stereo unspecified)
- viability, T/C (compound 0.0316 µM): 93.4% and 99.9% and 105%
- viability, T/C (compound 0.1 µM): 106% and 97.6% and 110%
- viability, T/C (compound 0.316 µM): 107% and 115% and 109%
- viability, T/C (compound 1 µM): 102% and 111% and 112%
- viability, T/C (compound 3.16 µM): 120% and 116% and 110%
- viability, T/C (compound 10 µM): 88.8% and 91% and 102%

- IC50 (curve of first compound, second compound 0.1 µM): > 10000 nM
- IC50 (curve of first compound, second compound 0.316 µM): 9750 nM
- IC50 (curve of first compound, second compound 1 µM): 7040 nM
- IC50 (curve of first compound, second compound 3.16 µM): 5750 nM
- IC50 (curve of first compound, second compound 10 µM): > 10000 nM
SMILES: O=C(c1cc(Cc2n[nH]c(=O)c3ccccc23)ccc1F)N1CCN(C(=O)C2CC2)CC1 + Cc1c(S(C)(=O)=O)c(-c2cc(F)cc(N3CCN(c4ccc(NS(=O)(=O)c5ccc(NC(CCN6CCC(C(=O)OCCCP(=O)(O)O)CC6)CSc6ccccc6)c(S(=O)(=O)C(F)(F)F)c5)cc4)CC3)c2)c(-c2ccc(Cl)cc2)n1C(C)C
- viability, T/C (second compound 0.1 µM, first compound 0.0316 µM): 77.8%
- viability, T/C (second compound 0.1 µM, first compound 0.1 µM): 81.8%
- viability, T/C (second compound 0.1 µM, first compound 0.316 µM): 80%
- viability, T/C (second compound 0.1 µM, first compound 1 µM): 71.8%
- viability, T/C (second compound 0.1 µM, first compound 3.16 µM): 66.8%
- viability, T/C (second compound 0.1 µM, first compound 10 µM): 56.2%
- viability, T/C (second compound 0.316 µM, first compound 0.0316 µM): 87.3%
- viability, T/C (second compound 0.316 µM, first compound 0.1 µM): 79.3%
- viability, T/C (second compound 0.316 µM, first compound 0.316 µM): 80.2%
- viability, T/C (second compound 0.316 µM, first compound 1 µM): 67.6%
- viability, T/C (second compound 0.316 µM, first compound 3.16 µM): 73.9%
- viability, T/C (second compound 0.316 µM, first compound 10 µM): 47.8%
- viability, T/C (second compound 1 µM, first compound 0.0316 µM): 77%
- viability, T/C (second compound 1 µM, first compound 0.1 µM): 72.8%
- viability, T/C (second compound 1 µM, first compound 0.316 µM): 65.7%
- viability, T/C (second compound 1 µM, first compound 1 µM): 71.3%
- viability, T/C (second compound 1 µM, first compound 3.16 µM): 58.1%
- viability, T/C (second compound 1 µM, first compound 10 µM): 45.8%
- viability, T/C (second compound 3.16 µM, first compound 0.0316 µM): 75%
- viability, T/C (second compound 3.16 µM, first compound 0.1 µM): 68.7%
- viability, T/C (second compound 3.16 µM, first compound 0.316 µM): 74.5%
- viability, T/C (second compound 3.16 µM, first compound 1 µM): 65.5%
- viability, T/C (second compound 3.16 µM, first compound 3.16 µM): 59.2%
- viability, T/C (second compound 3.16 µM, first compound 10 µM): 41.8%
- viability, T/C (second compound 10 µM, first compound 0.0316 µM): 75.9%
- viability, T/C (second compound 10 µM, first compound 0.1 µM): 80.5%
- viability, T/C (second compound 10 µM, first compound 0.316 µM): 72.1%
- viability, T/C (second compound 10 µM, first compound 1 µM): 70.6%
- viability, T/C (second compound 10 µM, first compound 3.16 µM): 60.6%
- viability, T/C (second compound 10 µM, first compound 10 µM): 55.3%

- IC50 (curve of compound): > 1000 nM
SMILES: CCN1CCN(Cc2ccc(Nc3ncc(F)c(-c4cc(F)c5nc(C)n(C(C)C)c5c4)n3)nc2)CC1
- viability, T/C (compound 0.00316 µM): 99.2% and 102% (2×)
- viability, T/C (compound 0.01 µM): 104% and 97% and 96.8%
- viability, T/C (compound 0.0316 µM): 109% (2×) and 99%
- viability, T/C (compound 0.1 µM): 94.1% and 103% and 115%
- viability, T/C (compound 0.316 µM): 114% and 110% and 112%
- viability, T/C (compound 1 µM): 110% and 102% and 112%
